Data reported in PubChem BioAssay AID2060331 (Molecular Pharmacology Branch, DTP, NCI, 2025).

Test system: Hs578T multi-cell spheroids, viability
Assay: Anticancer human tumor Hs578T cell line growth inhibition [IpAb];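 also: drug exposure lasted 7 days before readout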
Details: for IC50: curve of first compound; for viability, T/C: stronger effect = lower value
In short: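 Combinations with ipatasertib or abemaciclib were tested on tumour spheroids holding HUVEC (25%) and MSC (15%) alongside 60% malignant cells. Top concentration was at or near clinical Cmax (10 microM if undefined), descending in half-log steps.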

[1] = second compound 0.01 µM, first compound 0.0316 µM
[2] = second compound 0.01 µM, first compound 0.1 µM
[3] = second compound 0.01 µM, first compound 0.316 µM
[4] = second compound 0.01 µM, first compound 1 µM
[5] = second compound 0.01 µM, first compound 3.16 µM
[6] = second compound 0.01 µM, first compound 10 µM
[7] = second compound 0.0316 µM, first compound 0.0316 µM
[8] = second compound 0.0316 µM, first compound 0.1 µM
[9] = second compound 0.0316 µM, first compound 0.316 µM
[10] = second compound 0.0316 µM, first compound 1 µM
[11] = second compound 0.0316 µM, first compound 3.16 µM
[12] = second compound 0.0316 µM, first compound 10 µM
[13] = second compound 0.1 µM, first compound 0.0316 µM
[14] = second compound 0.1 µM, first compound 0.1 µM
[15] = second compound 0.1 µM, first compound 0.316 µM
[16] = second compound 0.1 µM, first compound 1 µM
[17] = second compound 0.1 µM, first compound 3.16 µM
[18] = second compound 0.1 µM, first compound 10 µM
[19] = second compound 0.316 µM, first compound 0.0316 µM
[20] = second compound 0.316 µM, first compound 0.1 µM
[21] = second compound 0.316 µM, first compound 0.316 µM
[22] = second compound 0.316 µM, first compound 1 µM
[23] = second compound 0.316 µM, first compound 3.16 µM
[24] = second compound 0.316 µM, first compound 10 µM
[25] = second compound 1 µM, first compound 0.0316 µM
[26] = second compound 1 µM, first compound 0.1 µM
[27] = second compound 1 µM, first compound 0.316 µM
[28] = second compound 1 µM, first compound 1 µM
[29] = second compound 1 µM, first compound 3.16 µM
[30] = second compound 1 µM, first compound 10 µM

C=CC(=O)N1CCN(c2nc(=O)n(-c3c(C)ccnc3C(C)C)c3nc(-c4c(O)cccc4F)c(F)cc23)C(C)C1 (stereo not given) + CCN1CCN(Cc2ccc(Nc3ncc(F)c(-c4cc(F)c5nc(C)n(C(C)C)c5c4)n3)nc2)CC1
IC50 (second compound 0.01 µM): > 10000 nM | IC50 (second compound 0.0316 µM): > 10000 nM | IC50 (second compound 0.1 µM): > 10000 nM | IC50 (second compound 0.316 µM): > 10000 nM | IC50 (second compound 1 µM): > 10000 nM | viability, T/C [1]: 97.5% | viability, T/C [2]: 103% | viability, T/C [3]: 101% | viability, T/C [4]: 96.2% | viability, T/C [5]: 98.8% | viability, T/C [6]: 74.5% | viability, T/C [7]: 96% | viability, T/C [8]: 97.2% | viability, T/C [9]: 100% | viability, T/C [10]: 96% | viability, T/C [11]: 92.3% | viability, T/C [12]: 76.8% | viability, T/C [13]: 92.5% | viability, T/C [14]: 86.3% | viability, T/C [15]: 94.1% | viability, T/C [16]: 102% | viability, T/C [17]: 92.5% | viability, T/C [18]: 77.2% | viability, T/C [19]: 93.2% | viability, T/C [20]: 95.5% | viability, T/C [21]: 98% | viability, T/C [22]: 101% | viability, T/C [23]: 92.8% | viability, T/C [24]: 77.9% | viability, T/C [25]: 104% | viability, T/C [26]: 107% | viability, T/C [27]: 112% | viability, T/C [28]: 118% | viability, T/C [29]: 101% | viability, T/C [30]: 88.4%

Cn1ncc(Cl)c1-c1cc(C(=O)NC(CN)Cc2cccc(F)c2)sc1Cl (stereo not given) + CCN1CCN(Cc2ccc(Nc3ncc(F)c(-c4cc(F)c5nc(C)n(C(C)C)c5c4)n3)nc2)CC1
IC50 (second compound 0.01 µM): 1410 nM | IC50 (second compound 0.0316 µM): 1330 nM | IC50 (second compound 0.1 µM): 791 nM | IC50 (second compound 0.316 µM): 829 nM | IC50 (second compound 1 µM): 1210 nM | viability, T/C [1]: 92.1% | viability, T/C [2]: 83.3% | viability, T/C [3]: 67.1% | viability, T/C [4]: 49.1% | viability, T/C [5]: 46.8% | viability, T/C [6]: 0.26% | viability, T/C [7]: 86% | viability, T/C [8]: 76.8% | viability, T/C [9]: 65.2% | viability, T/C [10]: 51.2% | viability, T/C [11]: 42% | viability, T/C [12]: 0.24% | viability, T/C [13]: 80.5% | viability, T/C [14]: 67.5% | viability, T/C [15]: 52.9% | viability, T/C [16]: 42.5% | viability, T/C [17]: 42.5% | viability, T/C [18]: 0.24% | viability, T/C [19]: 81.2% | viability, T/C [20]: 72% | viability, T/C [21]: 56.7% | viability, T/C [22]: 47.6% | viability, T/C [23]: 33.9% | viability, T/C [24]: 0.21% | viability, T/C [25]: 90% | viability, T/C [26]: 76.6% | viability, T/C [27]: 67.3% | viability, T/C [28]: 60.1% | viability, T/C [29]: 7.93% | viability, T/C [30]: 0.46%

Cn1ncnc1[C@H]1c2n[nH]c(=O)c3cc(F)cc(c23)N[C@@H]1c1ccc(F)cc1 + CCN1CCN(Cc2ccc(Nc3ncc(F)c(-c4cc(F)c5nc(C)n(C(C)C)c5c4)n3)nc2)CC1
IC50 (second compound 0.01 µM): > 100 nM | IC50 (second compound 0.0316 µM): > 100 nM | IC50 (second compound 0.1 µM): > 100 nM | IC50 (second compound 0.316 µM): > 100 nM | IC50 (second compound 1 µM): > 100 nM | viability, T/C (second compound 0.01 µM, first compound 0.000316 µM): 101% | viability, T/C (second compound 0.01 µM, first compound 0.001 µM): 100% | viability, T/C (second compound 0.01 µM, first compound 0.00316 µM): 95.2% | viability, T/C (second compound 0.01 µM, first compound 0.01 µM): 88.1% | viability, T/C [1]: 93.4% | viability, T/C [2]: 88.4% | viability, T/C (second compound 0.0316 µM, first compound 0.000316 µM): 99.3% | viability, T/C (second compound 0.0316 µM, first compound 0.001 µM): 94.3% | viability, T/C (second compound 0.0316 µM, first compound 0.00316 µM): 91.5% | viability, T/C (second compound 0.0316 µM, first compound 0.01 µM): 93% | viability, T/C [7]: 87.3% | viability, T/C [8]: 84.8% | viability, T/C (second compound 0.1 µM, first compound 0.000316 µM): 84.9% | viability, T/C (second compound 0.1 µM, first compound 0.001 µM): 87.8% | viability, T/C (second compound 0.1 µM, first compound 0.00316 µM): 86.8% | viability, T/C (second compound 0.1 µM, first compound 0.01 µM): 81.8% | viability, T/C [13]: 85.5% | viability, T/C [14]: 85.7% | viability, T/C (second compound 0.316 µM, first compound 0.000316 µM): 89.8% | viability, T/C (second compound 0.316 µM, first compound 0.001 µM): 88.2% | viability, T/C (second compound 0.316 µM, first compound 0.00316 µM): 91.8% | viability, T/C (second compound 0.316 µM, first compound 0.01 µM): 86.7% | viability, T/C [19]: 84.6% | viability, T/C [20]: 85.3% | viability, T/C (second compound 1 µM, first compound 0.000316 µM): 106% | viability, T/C (second compound 1 µM, first compound 0.001 µM): 102% | viability, T/C (second compound 1 µM, first compound 0.00316 µM): 104% | viability, T/C (second compound 1 µM, first compound 0.01 µM): 102% | viability, T/C [25]: 102% | viability, T/C [26]: 94.7%
